Assay results: the kinase profiling compilation of Christmann-Franck et al. (2016)

Tests used:
Test in all cases: radiometric filter-binding kinase assay, Kinase HotSpot
Conditions in all cases: compound 0.5 µM; ATP 10 µM
BMX (human) = BMX (human) (UniProt P51813)
CAMK2A (human) = CAMK2A (human) (UniProt Q9UQM7)
CAMK2G (human) = CAMK2G (human) (UniProt Q13555)
CDK2 CCNE1 (human) = CDK2 CCNE1 (human) (UniProt P24941+P24864)
CDK6 CCND3 (human) = CDK6 CCND3 (human) (UniProt P30281+Q00534)
CSF1R (human) = CSF1R (human) (UniProt P07333)
DYRK3 (human) = DYRK3 (human) (UniProt O43781)
EPHA3 (human) = EPHA3 (human) (UniProt P29320)
FER (human) = FER (human) (UniProt P16591)
GSG2 (human) = GSG2 (human) (UniProt Q8TF76)
IGF1R (human) = IGF1R (human) (UniProt P08069)
IRAK4 (human) = IRAK4 (human) (UniProt Q9NWZ3)
ITK (human) = ITK (human) (UniProt Q08881)
MAP2K1 (human) = MAP2K1 (human) (UniProt Q02750)
MAP2K2 (human) = MAP2K2 (human) (UniProt P36507)
MAP4K2 (human) = MAP4K2 (human) (UniProt Q12851)
MAP4K4 (human) = MAP4K4 (human) (UniProt O95819)
MAPK1 (human) = MAPK1 (human) (UniProt P28482)
MAPKAPK2 (human) = MAPKAPK2 (human) (UniProt P49137)
MATK (human) = MATK (human) (UniProt P42679)
MST1R (human) = MST1R (human) (UniProt Q04912)
MUSK (human) = MUSK (human) (UniProt O15146)
NEK11 (human) = NEK11 (human) (UniProt Q8NG66)
PAK1 (human) = PAK1 (human) (UniProt Q13153)
PBK (human) = PBK (human) (UniProt Q96KB5)
PIM3 (human) = PIM3 (human) (UniProt Q86V86)
PKN1 (human) = PKN1 (human) (UniProt Q16512)
PRKCB2 (human) = PRKCB2 (human) (UniProt P05771)
PRKD1 (human) = PRKD1 (human) (UniProt Q15139)
PTK2 (human) = PTK2 (human) (UniProt Q05397)
ROCK1 (human) = ROCK1 (human) (UniProt Q13464)
ROCK2 (human) = ROCK2 (human) (UniProt O75116)
RPS6KA3 KD1 KD2 (human) = RPS6KA3 KD1 KD2 (human) (UniProt P51812)
RPS6KA4 KD2 (human) = RPS6KA4 KD2 (human) (UniProt O75676)
SLK (human) = SLK (human) (UniProt Q9H2G2)
STK39 (human) = STK39 (human) (UniProt Q9UEW8)
TNK2 (human) = TNK2 (human) (UniProt Q07912)
[1] = biological target: TYK2 JH1 catalytic (human) (UniProt P29597)
WNK2 (human) = WNK2 (human) (UniProt Q9Y3S1)
YES1 (human) = YES1 (human) (UniProt P07947)
SRC (human) = SRC (human) (UniProt P12931)

ROCK1 (human), sequence (Q13464 whole entry, looked up): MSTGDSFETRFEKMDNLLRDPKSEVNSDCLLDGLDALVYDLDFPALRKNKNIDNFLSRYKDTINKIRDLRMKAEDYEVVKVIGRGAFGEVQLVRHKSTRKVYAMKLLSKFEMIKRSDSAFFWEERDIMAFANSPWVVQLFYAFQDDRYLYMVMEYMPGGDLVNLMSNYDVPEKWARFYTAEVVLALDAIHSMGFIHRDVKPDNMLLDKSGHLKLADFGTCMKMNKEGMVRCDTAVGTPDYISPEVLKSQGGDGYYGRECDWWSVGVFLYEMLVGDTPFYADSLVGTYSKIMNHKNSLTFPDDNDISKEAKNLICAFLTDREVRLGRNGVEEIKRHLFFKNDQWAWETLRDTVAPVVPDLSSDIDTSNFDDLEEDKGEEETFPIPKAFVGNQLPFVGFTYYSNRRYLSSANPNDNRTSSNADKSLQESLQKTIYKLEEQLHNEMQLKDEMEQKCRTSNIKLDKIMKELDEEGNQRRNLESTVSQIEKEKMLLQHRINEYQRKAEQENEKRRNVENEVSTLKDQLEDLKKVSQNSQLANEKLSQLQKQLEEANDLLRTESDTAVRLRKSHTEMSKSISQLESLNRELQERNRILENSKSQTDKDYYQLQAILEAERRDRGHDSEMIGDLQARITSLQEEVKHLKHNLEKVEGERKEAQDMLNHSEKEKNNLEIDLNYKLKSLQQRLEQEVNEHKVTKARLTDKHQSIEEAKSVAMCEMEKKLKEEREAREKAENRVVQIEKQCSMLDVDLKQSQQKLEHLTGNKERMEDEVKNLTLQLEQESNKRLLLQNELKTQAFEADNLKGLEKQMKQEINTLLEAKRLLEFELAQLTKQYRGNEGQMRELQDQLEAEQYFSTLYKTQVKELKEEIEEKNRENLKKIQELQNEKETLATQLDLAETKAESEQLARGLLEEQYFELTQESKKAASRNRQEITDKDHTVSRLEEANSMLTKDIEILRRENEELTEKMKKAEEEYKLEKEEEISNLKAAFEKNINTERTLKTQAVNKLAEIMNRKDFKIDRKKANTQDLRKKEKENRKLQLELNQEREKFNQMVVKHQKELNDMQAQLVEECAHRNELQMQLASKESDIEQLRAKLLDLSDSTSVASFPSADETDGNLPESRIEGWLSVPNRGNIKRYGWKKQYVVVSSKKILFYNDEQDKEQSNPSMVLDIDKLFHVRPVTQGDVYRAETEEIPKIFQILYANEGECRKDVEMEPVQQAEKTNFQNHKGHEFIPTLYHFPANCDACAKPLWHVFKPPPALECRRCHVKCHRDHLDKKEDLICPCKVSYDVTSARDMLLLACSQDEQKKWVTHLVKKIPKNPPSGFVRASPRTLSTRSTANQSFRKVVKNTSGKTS
FER (human), sequence (P16591 whole entry, looked up): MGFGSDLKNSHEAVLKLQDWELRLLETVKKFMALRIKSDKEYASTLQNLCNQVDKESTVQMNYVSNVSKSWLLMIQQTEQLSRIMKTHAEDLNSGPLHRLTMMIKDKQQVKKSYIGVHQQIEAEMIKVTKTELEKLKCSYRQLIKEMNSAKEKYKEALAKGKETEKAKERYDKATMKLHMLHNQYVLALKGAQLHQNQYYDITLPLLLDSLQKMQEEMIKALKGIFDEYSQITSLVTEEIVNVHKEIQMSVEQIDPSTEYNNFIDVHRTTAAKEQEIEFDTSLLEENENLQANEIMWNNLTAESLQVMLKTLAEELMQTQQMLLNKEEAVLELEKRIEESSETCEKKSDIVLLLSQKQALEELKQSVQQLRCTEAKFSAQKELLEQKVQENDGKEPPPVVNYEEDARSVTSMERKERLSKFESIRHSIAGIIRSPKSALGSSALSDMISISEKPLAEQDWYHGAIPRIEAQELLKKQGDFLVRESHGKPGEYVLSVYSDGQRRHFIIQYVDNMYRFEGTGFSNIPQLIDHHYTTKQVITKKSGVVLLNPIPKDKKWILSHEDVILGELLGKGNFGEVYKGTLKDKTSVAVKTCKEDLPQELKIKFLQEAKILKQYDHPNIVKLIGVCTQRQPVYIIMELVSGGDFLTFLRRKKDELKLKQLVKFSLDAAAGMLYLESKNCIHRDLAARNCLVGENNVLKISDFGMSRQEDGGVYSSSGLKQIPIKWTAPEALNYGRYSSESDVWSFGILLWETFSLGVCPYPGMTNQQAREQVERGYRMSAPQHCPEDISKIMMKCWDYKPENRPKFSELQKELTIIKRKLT
ITK (human), sequence (Q08881 whole entry, looked up): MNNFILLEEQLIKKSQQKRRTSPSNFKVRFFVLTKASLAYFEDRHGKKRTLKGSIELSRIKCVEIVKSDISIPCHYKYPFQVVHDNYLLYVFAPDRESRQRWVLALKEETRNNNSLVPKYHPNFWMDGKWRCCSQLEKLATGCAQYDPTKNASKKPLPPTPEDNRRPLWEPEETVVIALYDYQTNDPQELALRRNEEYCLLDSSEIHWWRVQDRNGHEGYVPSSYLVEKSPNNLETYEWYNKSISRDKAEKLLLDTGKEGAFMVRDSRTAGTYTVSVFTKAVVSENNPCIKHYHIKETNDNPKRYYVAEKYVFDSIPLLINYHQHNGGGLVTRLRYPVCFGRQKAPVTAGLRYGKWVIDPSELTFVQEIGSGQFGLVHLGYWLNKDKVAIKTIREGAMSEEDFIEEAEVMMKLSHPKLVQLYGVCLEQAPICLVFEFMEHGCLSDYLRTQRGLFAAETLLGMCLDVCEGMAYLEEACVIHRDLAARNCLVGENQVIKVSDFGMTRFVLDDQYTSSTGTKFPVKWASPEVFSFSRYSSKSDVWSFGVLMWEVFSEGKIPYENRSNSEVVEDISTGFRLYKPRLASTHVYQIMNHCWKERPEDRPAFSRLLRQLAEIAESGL
PBK (human), sequence (Q96KB5 whole entry, looked up): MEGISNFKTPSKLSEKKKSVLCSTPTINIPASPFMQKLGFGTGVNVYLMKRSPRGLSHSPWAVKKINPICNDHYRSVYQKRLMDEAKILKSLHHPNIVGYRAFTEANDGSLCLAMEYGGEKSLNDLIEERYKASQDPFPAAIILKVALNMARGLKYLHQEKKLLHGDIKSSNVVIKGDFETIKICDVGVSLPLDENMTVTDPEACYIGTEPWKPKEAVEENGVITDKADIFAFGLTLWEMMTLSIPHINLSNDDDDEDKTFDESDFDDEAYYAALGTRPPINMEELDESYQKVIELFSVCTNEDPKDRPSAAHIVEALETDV
SLK (human), sequence (Q9H2G2 whole entry, looked up): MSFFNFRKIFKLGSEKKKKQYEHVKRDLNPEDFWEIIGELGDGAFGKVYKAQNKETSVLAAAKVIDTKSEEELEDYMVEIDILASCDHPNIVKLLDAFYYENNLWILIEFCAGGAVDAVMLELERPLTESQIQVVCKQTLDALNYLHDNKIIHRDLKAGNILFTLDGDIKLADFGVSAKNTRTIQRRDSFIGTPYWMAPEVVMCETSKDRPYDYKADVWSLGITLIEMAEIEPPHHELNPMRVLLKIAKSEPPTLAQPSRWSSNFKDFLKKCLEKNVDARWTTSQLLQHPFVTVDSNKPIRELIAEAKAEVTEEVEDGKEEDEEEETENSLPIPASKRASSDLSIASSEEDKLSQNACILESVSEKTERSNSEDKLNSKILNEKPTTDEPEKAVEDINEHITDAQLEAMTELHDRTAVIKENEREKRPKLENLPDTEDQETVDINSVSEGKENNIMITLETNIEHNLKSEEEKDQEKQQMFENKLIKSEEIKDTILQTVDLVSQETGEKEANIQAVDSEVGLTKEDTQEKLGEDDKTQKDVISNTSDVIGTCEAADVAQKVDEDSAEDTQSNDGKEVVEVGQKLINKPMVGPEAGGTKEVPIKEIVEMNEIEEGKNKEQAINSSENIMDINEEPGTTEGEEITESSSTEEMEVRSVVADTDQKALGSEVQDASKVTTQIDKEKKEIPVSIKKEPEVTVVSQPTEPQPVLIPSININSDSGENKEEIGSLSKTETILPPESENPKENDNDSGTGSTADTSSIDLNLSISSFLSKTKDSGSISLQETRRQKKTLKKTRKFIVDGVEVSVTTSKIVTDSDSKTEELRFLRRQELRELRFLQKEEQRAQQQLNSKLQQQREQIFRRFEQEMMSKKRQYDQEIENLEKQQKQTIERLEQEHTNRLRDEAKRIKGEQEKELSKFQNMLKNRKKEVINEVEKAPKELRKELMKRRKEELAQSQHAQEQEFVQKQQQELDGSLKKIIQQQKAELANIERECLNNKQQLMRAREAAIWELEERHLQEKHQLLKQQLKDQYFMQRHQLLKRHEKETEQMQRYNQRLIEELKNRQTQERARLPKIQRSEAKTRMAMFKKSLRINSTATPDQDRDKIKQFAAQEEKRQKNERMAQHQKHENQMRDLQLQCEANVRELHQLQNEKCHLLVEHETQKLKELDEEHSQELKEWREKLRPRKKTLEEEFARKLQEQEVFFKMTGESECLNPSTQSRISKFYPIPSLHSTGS
PAK1 (human), sequence (Q13153 whole entry, looked up): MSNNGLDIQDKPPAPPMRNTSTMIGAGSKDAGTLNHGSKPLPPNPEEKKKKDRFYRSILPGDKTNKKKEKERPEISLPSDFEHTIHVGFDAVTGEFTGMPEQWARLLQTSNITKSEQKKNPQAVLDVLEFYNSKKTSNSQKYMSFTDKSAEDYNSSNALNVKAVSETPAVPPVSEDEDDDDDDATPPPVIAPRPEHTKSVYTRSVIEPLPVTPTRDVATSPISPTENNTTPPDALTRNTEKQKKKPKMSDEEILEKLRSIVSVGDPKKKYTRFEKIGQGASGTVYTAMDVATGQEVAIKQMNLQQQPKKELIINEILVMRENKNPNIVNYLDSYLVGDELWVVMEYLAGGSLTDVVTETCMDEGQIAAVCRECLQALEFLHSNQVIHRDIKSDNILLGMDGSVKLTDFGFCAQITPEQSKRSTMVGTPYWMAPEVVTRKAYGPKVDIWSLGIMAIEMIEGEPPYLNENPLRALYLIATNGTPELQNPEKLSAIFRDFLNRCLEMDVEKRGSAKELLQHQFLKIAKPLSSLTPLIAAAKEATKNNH

COc1cc2ncnc(Nc3ccc(F)c(Cl)c3)c2cc1OCCCN1CCOCC1
residual activity (BMX (human)): 102%
residual activity (CAMK2A (human)): 94.4%
residual activity (CAMK2G (human)): 128%
residual activity (CDK2 CCNE1 (human)): 101%
residual activity (CDK6 CCND3 (human)): 118%
residual activity (CSF1R (human)): 110%
residual activity (DYRK3 (human)): 85%
residual activity (EPHA3 (human)): 94.4%
residual activity (FER (human)): 94.1%
residual activity (GSG2 (human)): 84%
residual activity (IGF1R (human)): 92.3%
residual activity (IRAK4 (human)): 78.8%
residual activity (ITK (human)): 99.9%
residual activity (MAP2K1 (human)): 107%
residual activity (MAP2K2 (human)): 102%
residual activity (MAP4K2 (human)): 104%
residual activity (MAP4K4 (human)): 97.8%
residual activity (MAPK1 (human)): 103%
residual activity (MAPKAPK2 (human)): 97.5%
residual activity (MATK (human)): 86.4%
residual activity (MST1R (human)): 97.7%
residual activity (MUSK (human)): 98.1%
residual activity (NEK11 (human)): 109%
residual activity (PAK1 (human)): 104%
residual activity (PBK (human)): 102%
residual activity (PIM3 (human)): 74.6%
residual activity (PKN1 (human)): 105%
residual activity (PRKCB2 (human)): 100%
residual activity (PRKD1 (human)): 85.4%
residual activity (PTK2 (human)): 103%
residual activity (ROCK1 (human)): 106%
residual activity (ROCK2 (human)): 90.8%
residual activity (RPS6KA3 KD1 KD2 (human)): 100%
residual activity (RPS6KA4 KD2 (human)): 104%
residual activity (SLK (human)): 83.7%
residual activity (STK39 (human)): 93.5%
residual activity (TNK2 (human)): 72.8%
residual activity [1]: 102%
residual activity (WNK2 (human)): 97.2%
residual activity (YES1 (human)): 74.4%

C#Cc1cccc(Nc2ncnc3cc(OCCOC)c(OCCOC)cc23)c1
residual activity (BMX (human)): 100%
residual activity (CAMK2A (human)): 97.6%
residual activity (CAMK2G (human)): 115%
residual activity (CDK2 CCNE1 (human)): 96.5%
residual activity (CDK6 CCND3 (human)): 117%
residual activity (DYRK3 (human)): 83.5%
residual activity (EPHA3 (human)): 93.2%
residual activity (FER (human)): 94%
residual activity (GSG2 (human)): 80.9%
residual activity (IGF1R (human)): 91.6%
residual activity (IRAK4 (human)): 93.8%
residual activity (ITK (human)): 106%
residual activity (MAP2K1 (human)): 105%
residual activity (MAP2K2 (human)): 105%
residual activity (MAP4K2 (human)): 105%
residual activity (MAPK1 (human)): 116%
residual activity (MST1R (human)): 93.6%
residual activity (MUSK (human)): 94.6%
residual activity (NEK11 (human)): 114%
residual activity (PAK1 (human)): 109%
residual activity (PBK (human)): 104%
residual activity (PIM3 (human)): 81.4%
residual activity (PKN1 (human)): 108%
residual activity (PRKCB2 (human)): 98.6%
residual activity (PRKD1 (human)): 94.8%
residual activity (PTK2 (human)): 108%
residual activity (ROCK1 (human)): 107%
residual activity (ROCK2 (human)): 91%
residual activity (RPS6KA3 KD1 KD2 (human)): 100%
residual activity (SLK (human)): 42%
residual activity (SRC (human)): 77.4%
residual activity (STK39 (human)): 97%

CCN1/C(=C/C(C)=O)Sc2ccc(OC)cc21
residual activity (BMX (human)): 105%
residual activity (CAMK2A (human)): 103%
residual activity (CAMK2G (human)): 90.4%
residual activity (CDK2 CCNE1 (human)): 87.7%
residual activity (CDK6 CCND3 (human)): 104%
residual activity (CSF1R (human)): 93.8%
residual activity (DYRK3 (human)): 50.4%
residual activity (EPHA3 (human)): 89.9%
residual activity (FER (human)): 87.9%
residual activity (GSG2 (human)): 25%
residual activity (IGF1R (human)): 98.3%
residual activity (IRAK4 (human)): 123%
residual activity (ITK (human)): 102%
residual activity (MAP2K1 (human)): 98.7%
residual activity (MAP2K2 (human)): 86.4%
residual activity (MAP4K2 (human)): 105%
residual activity (MAP4K4 (human)): 83.2%
residual activity (MAPK1 (human)): 97.1%
residual activity (MAPKAPK2 (human)): 94.6%
residual activity (MATK (human)): 89.2%
residual activity (MST1R (human)): 94.5%
residual activity (MUSK (human)): 28.4%
residual activity (NEK11 (human)): 104%
residual activity (PAK1 (human)): 92.9%
residual activity (PBK (human)): 94.8%
residual activity (PIM3 (human)): 47.4%
residual activity (PKN1 (human)): 100%
residual activity (PRKCB2 (human)): 99.3%
residual activity (PRKD1 (human)): 78.1%
residual activity (PTK2 (human)): 108%
residual activity (ROCK1 (human)): 99.3%
residual activity (ROCK2 (human)): 90.7%
residual activity (RPS6KA3 KD1 KD2 (human)): 102%
residual activity (RPS6KA4 KD2 (human)): 91.8%
residual activity (SLK (human)): 86.8%
residual activity (SRC (human)): 94.4%
residual activity (STK39 (human)): 95.9%
residual activity (TNK2 (human)): 102%
residual activity [1]: 113%
residual activity (WNK2 (human)): 91.1%
residual activity (YES1 (human)): 91.8%
